Molecular target: FAK kinase (catalytic construct FAK(410-689)) (Homo sapiens (Human), UniProt Q05397)
Assay: FAKcd kinase ELISA (inhibition of poly-glu-tyr phosphorylation by FAK(410-689))
Assay type: biochemical
Details: 50 μM final ATP

Sequence of FAK kinase (catalytic construct FAK(410-689)) (Q05397 410-689): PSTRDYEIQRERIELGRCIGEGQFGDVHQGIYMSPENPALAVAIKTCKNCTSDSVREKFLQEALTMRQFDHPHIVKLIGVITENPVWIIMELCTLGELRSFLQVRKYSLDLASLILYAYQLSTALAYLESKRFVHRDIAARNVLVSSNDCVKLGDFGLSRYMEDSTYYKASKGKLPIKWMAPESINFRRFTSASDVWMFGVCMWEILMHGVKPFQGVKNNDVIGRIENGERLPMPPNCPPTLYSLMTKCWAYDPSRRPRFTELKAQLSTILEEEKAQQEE

| SMILES | IC50 [nM] |
| --- | --- |
| CN(c1cccnc1CNc1nc(Nc2cc(C(N)=O)ccc2F)ncc1C(F)(F)F)S(C)(=O)=O [Compound 378, 4-fluoro-3-({4-[({3-[methyl(methylsulfonyl)amino]pyridin-2-yl}methyl)amino]-5-(trifluoromethyl)pyrimidin-2-yl}amino)benzamide] | 1.94 |
| CN(c1cccc(CNc2nc(Nc3ccc(F)c(C(N)=O)c3)ncc2C(F)(F)F)c1)S(C)(=O)=O [Compound 379, 2-fluoro-5-{[4-({3-[methyl(methylsulfonyl)amino]benzyl}amino)-5-(trifluoromethyl)pyrimidin-2-yl]amino}benzamide] | 4.78 |
| CN(c1ncccc1CNc1nc(Nc2ccc(F)c(C(N)=O)c2)ncc1C(F)(F)F)S(C)(=O)=O [Compound 380, 2-fluoro-5-({4-[{{2-[methyl(methylsulfonyl)amino]pyridin-3-yl}methyl)amino]-5-(trifluoromethyl)pyrimidin-2-yl}amino)benzamide] | 1.6 |
| CN(c1cccnc1CNc1nc(Nc2ccc(F)c(C(N)=O)c2)ncc1C(F)(F)F)S(C)(=O)=O [Compound 381, 2-fluoro-5-({4-[({3-[methyl(methylsulfonyl)amino]pyridin-2-yl}methyl)amino]-5-(trifluoromethyl)pyrimidin-2-yl}amino)benzamide] | 4.55 |
| CN(c1nccnc1CNc1nc(Nc2ccc(F)c(C(N)=O)c2)ncc1C(F)(F)F)S(C)(=O)=O [Compound 382, 2-fluoro-5-({4-[({3-[methyl(methylsulfonyl)amino]pyrazin-2-yl}methyl)amino]-5-(trifluoromethyl)pyrimidin-2-yl}amino)benzamide] | 10.7 |
| CC(=O)Nc1cccc(Nc2ncc(C(F)(F)F)c(NCc3nccnc3N(C)S(C)(=O)=O)n2)c1 [Compound 385, N-[3-({4-[({3-[methyl(methylsulfonyl)amino]pyrazin-2-yl}methyl)amino]-5-(trifluoromethyl)pyrimidin-2-yl}amino)phenyl]acetamide] | 1.44 |
| CC(=O)Nc1cccc(Nc2ncc(C(F)(F)F)c(NCc3ncccc3N(C)S(C)(=O)=O)n2)c1 [Compound 386, N-[3-({4-[({3-[methyl(methylsulfonyl)amino]pyridin-2-yl}methyl)amino]-5-(trifluoromethyl)pyrimidin-2-yl}amino)phenyl]acetamide] | 1.65 |
| CN(c1nccnc1CNc1nc(Nc2ccc(C#N)c(O)c2)ncc1C(F)(F)F)S(C)(=O)=O [Compound 391, N-{3-[({2-[(4-cyano-3-hydroxyphenyl)amino]-5-(trifluoromethyl)pyrlmldin-4-yl}amino)methyl]pyrazin-2-yl}-N-methylmethane-sulfonamide] | 1.24 |
| CN(c1cccc(CNc2nc(Nc3ccc(C#N)c(O)c3)ncc2C(F)(F)F)c1)S(C)(=O)=O [Compound 392, N-{3-[({2-[(4-cyano-3-hydroxyphenyl)amino]-5-(trifluoromethyl)pyrimidin-4-yl}amino)methyl]phenyl}-N-methylmethanesulfonamide] | 4.51 |
| CS(=O)(=O)c1cccc(CNc2nc(Nc3ccc(C#N)c(O)c3)ncc2C(F)(F)F)c1 [Compound 393, 2-hydroxy-4-{[4-{[3-(methylsulfonyl)benzyl]amino}-5-(trifluoromethyl)pyrimidin-2-yl]amino}benzonitrile] | 7.41 |
| CN(c1cccc(CNc2nc(Nc3ccc(C(N)=O)c(O)c3)ncc2C(F)(F)F)c1)S(C)(=O)=O [Compound 396, 2-hydroxy-4-{[4-({3-[methyl(methylsulfonyl)amino]benzyl}amino)-5-(trifluoromethyl)pyrimidin-2-yl]amino}bertzamide] | 3.13 |
| CC(=O)NCC(=O)Nc1cccc(Nc2ncc(C(F)(F)F)c(NCc3nccnc3N(C)S(C)(=O)=O)n2)c1 [Compound 397, N-2-acetyl-N-[3-({4-[({3-[methyl(methylsulfonyl)amino]pyrazin-2-yl}methyl)amino]-5-(trifluoromethyl)pyrimidin-2-yl}amino)phenyl]glycinamide] | 1.51 |
| CC(=O)NCC(=O)Nc1cccc(Nc2ncc(C(F)(F)F)c(NCc3ncccc3N(C)S(C)(=O)=O)n2)c1 [Compound 398, N~2~-acetyl-N-[3-({4-[({3-[methyl(methylsulfonyl)amino]pyridin-2-yl}methyl)amino]-5-(trifluoromethyl)pyrimidin-2-yl}amino)phenyl]glycinamide] | 2.18 |
| CC(=O)NCC(=O)Nc1cccc(Nc2ncc(C(F)(F)F)c(NCc3cccc(N(C)S(C)(=O)=O)c3)n2)c1 [Compound 399, N-2-acetyl-N-(3-{[4-({3-[methyl(methylsulfonyl)amino]benzyl}amino)-5-(trifluoromethyl)pyrimidin-2-yl]amino}phenyl)glycinamide] | 5.57 |
| CNC(=O)c1ccc(Nc2ncc(C(F)(F)F)c(NCc3nccnc3N(C)S(C)(=O)=O)n2)c(C)c1 [Compound 401, N,3-dimethyl-4-({4-[({3-[methyl(methylsulfonyl)amino]pyrazin-2-yl}methyl)amino]-5-(trifluoromethyl)pyrimidin-2-yl}amino)benzamide] | 1.17 |
| CNC(=O)c1ccc(Nc2ncc(C(F)(F)F)c(NCc3cccnc3N(C)S(C)(=O)=O)n2)c(C)c1 [Compound 403, N,3-dimethyl-4-({4-[({2-[methyl(methylsulfonyl)amino]pyridin-3-yl}methyl)amino)-5-(trifluoromethyl)pyrimidin-2-yl}amino)benzamide] | 1.09 |
| CN(c1ccnc(CNc2nc(Nc3ccc(C(N)=O)cc3)ncc2C(F)(F)F)c1)S(C)(=O)=O [Compound 404, 4-({4-[({4-[methyl(methylsulfonyl)amino]pyridin-2-yl}methyl)amino]-5-(trifluoromethyl)pyrimidin-2-yl}amino)benzamide] | 2.07 |
| Cc1cc(C(N)=O)ccc1Nc1ncc(C(F)(F)F)c(NCc2cc(N(C)S(C)(=O)=O)ccn2)n1 [Compound 405, 3-methyl-4-({4-[({4-[methyl(methylsulfonyl)amino]pyridin-2-yl}methyl)amino]-5-(trifluoromethyl)pyrimidin-2-yl}amino)benzamide] | 17.3 |
| CN(c1ncccc1CNc1nc(Nc2cccc(C(N)=NO)c2)ncc1C(F)(F)F)S(C)(=O)=O [Compound 408, N′-hydroxy-3-({4-[({2-[methyl(methylsulfonyl)amino]pyridin-3-yl}methyl)amino]-5-(trifluoromethyl)pyrimidin-2-yl}amino)benzenecarboximidamide] | 2.29 |
| CN(c1nccnc1CNc1nc(Nc2ccc(C3COC(C)(C)O3)cc2)ncc1C(F)(F)F)S(C)(=O)=O (stereo not drawn) [Compound 409, N-[3-({[2-{[4-(2,2-dimethyl-1,3-dioxolan-4-yl)phenyl]amino}-5-(trifluoromethyl)pyrimidin-4-yl]amino}methyl)pyrazin-2-yl]-N-methylmethane-sulfonamide] | 4.75 |

These reach a lower IC50. Values come first.

| IC50 [nM] | SMILES |
| --- | --- |
| < 0.595 | CN(c1ncccc1CNc1nc(Nc2ccc(CNCCO)cc2)ncc1C(F)(F)F)S(C)(=O)=O [Compound 383, N-{3-[({2-[(4-{[(2-hydroxyethyl)amino]methyl}phenyl)amino]-5-(trifluoromethyl)pyrimidin-4-yl}amino)methyl]pyridin-2-yl}-N-methylmethane-sulfonamide] |
| < 0.595 | CC(C)NCc1ccc(Nc2ncc(C(F)(F)F)c(NCc3cccnc3N(C)S(C)(=O)=O)n2)cc1 [Compound 384, N-[3-({[2-({4-[(isopropylamino)methyl]phenyl}amino)-5-(trifluoromethyl)pyrimidin-4-yl]amino}methyl)pyridin-2-yl]-N-methylmethane-sulfonamide] |
| < 0.595 | COCCNCc1ccc(Nc2ncc(C(F)(F)F)c(NCc3cccnc3N(C)S(C)(=O)=O)n2)cc1 [Compound 388, N-{3-[({2-((4-{[(2-methoxyethyl)amino]methyl}phenyl)amino]-5-(trifluoromethyl)pyrimidin-4-yl}amino)methyl]pyridin-2-yl}-N-methylmethane-sulfonamide] |
| 0.746 | CN(c1ncccc1CNc1nc(Nc2ccc(C#N)c(O)c2)ncc1C(F)(F)F)S(C)(=O)=O [Compound 390, N-{3-[({2-[(4-cyano-3-hydroxyphenyl)amino]-5-(trifluoromethyl)pyrimidin-4-yl}amino)methyl]pyridin-2-yl}-N-methylmethane-sulfonamide] |
| < 0.595 | CN(c1ncccc1CNc1nc(Nc2ccc(C(N)=O)c(O)c2)ncc1C(F)(F)F)S(C)(=O)=O [Compound 394, 2-hydroxy-4-({4-[({2-[methyl(methylsulfonyl)amino)pyridin-3-yl}methyl)amino]-5-(trifluoromethyl)pyrimidin-2-yl}amino)benzamide] |
| 0.849 | CN(c1nccnc1CNc1nc(Nc2ccc(C(N)=O)c(O)c2)ncc1C(F)(F)F)S(C)(=O)=O [Compound 395, 2-hydroxy-4-({4-(({3-[methyl(methylsulfonyl)amino]pyrazin-2-yl}methyl)amino]-5-(trifluoromethyl)pyrimidin-2-yl}amino)benzamide] |
| 0.66 | CNC(=O)c1ccc(Nc2ncc(C(F)(F)F)c(NCc3nccnc3N(C)S(C)(=O)=O)n2)cc1C [Compound 400, N,2-dimethyl-4-({4-[({3-[methyl(methylsulfonyl)amino]pyrazin-2-yl)methyl)amino]-5-(trifluoromethyl)pyrimidin-2-yl}amino)benzamide] |
| < 0.595 | CNC(=O)c1ccc(Nc2ncc(C(F)(F)F)c(NCc3cccnc3N(C)S(C)(=O)=O)n2)cc1C [Compound 402, N,2-dimethyl-4-({4-[({2-[methyl(methylsulfonyl)amino]pyridin-3-yl}methyl)amino]-5-(trifluoromethyl)pyrimidin-2-yl}amino)benzamide] |
| 0.784 | Cc1cc(Nc2ncc(C(F)(F)F)c(NCc3cc(N(C)S(C)(=O)=O)ccn3)n2)ccc1C(N)=O [Compound 406, 2-methyl-4-({4-[({4-[methyl(methylsulfonyl)amino]pyridin-2-yl}methyl)amino]-5-(trifluoromethyl)pyrimidin-2-yl}amino)benzamide] |
| < 0.595 | CN(c1ncccc1CNc1nc(Nc2ccc(/C(N)=N/O)cc2)ncc1C(F)(F)F)S(C)(=O)=O [Compound 407, N′-hydroxy-4-({4-[({2-[methyl(methylsulfonyl)amino]pyridin-3-yl}methyl)amino]-5-(trifluoromethyl)pyrimidin-2-yl}amino)benzenecarboximidamide] |

Reference: US10450297B2, “Sulfonyl amide derivatives for the treatment of abnormal cell growth” (Pfizer, Inc., priority 2007, dated 2019)
